Test system: participants with primary biliary cholangitis
Assay: NCT04526665 (ELATIVE) double-blind, placebo-controlled phase 3 clinical trial
Type: in vivo, human
Experimental: Participants aged 18 to 75 years, who had been diagnosed with primary biliary cholangitis according to established criteria, were recruited at 82 sites in 14 countries. Inclusion criteria were an alkaline phosphatase level of ≥1.67 times the upper limit of the normal range (ULN), and a total bilirubin level of ≤2 times the ULN. Prior to screening, eligible participants had received 13 to 15 mg/kg ursodeoxycholic acid treatment per day for at least 12 months (stable dose for at least 3 months) or were intolerant to ursodeoxycholic acid (no treatment for at least 3 months).
In this double-blind, placebo-controlled, phase 3 trial, participants with an inadequate response or intolerance to ursodeoxycholic acid were randomized 2:1 to receive elafibranor 80 mg or placebo once daily. Participants receiving stable doses of ursodeoxycholic acid for at least three months prior to enrollment continued their treatment regimen throughout the trial. The overall double-blind treatment period consisted of two parts. In part one, all randomized participants received a minimum of 52 weeks of double-blind treatment. In part two, participants continued to receive double-blind treatment beyond Week 52 in a variable treatment period until all participants had completed their Week 52 assessment or until a maximum treatment duration of 104 weeks, whichever came first. The first database lock occurred after the last participant completed their Week 52 visit in the double-blind period. At the end of the double-blind period (lasting 52 to 104 weeks), participants could optionally enter an open-label extension where they would receive elafibranor 80 mg for up to five years.
The primary endpoint of Study NCT04526665 was response to treatment in the intent-to-treat population at Week 52, defined as ALP<1.67×ULN, TB≤ULN, and ALP decrease ≥15% from baseline. The primary endpoint was also analyzed according to baseline alkaline phosphatase levels of ≤3 times versus >3 times the ULN.
From September 2020 through May 2023, 161 participants were randomly assigned to receive elafibranor 80 mg (108 participants) or placebo (53 participants); these participants made up the intent-to-treat (ITT) and safety populations.

CSc1ccc(C(=O)C=Cc2cc(C)c(OC(C)(C)C(=O)O)c(C)c2)cc1 [elafibranor, 2-(2,6-dimethyl-4-{3-[4-(methylsulfanyl)phenyl]-3-oxoprop-1-en-1-yl}phenoxy)-2-methylpropanoic acid]
efficacy in baseline ALP >1.67×ULN and ≤3×ULN relative to baseline ALP >3×ULN (80 mg daily): more than 3 times
Primary endpoint met at week 52, n (%) (1.67 ULN < ALP ≤ 3 ULN, ITT Analysis Set, n=65): 46 (70.8) n (%)
Response according to Paris I criteria: Primary endpoint met at week 52, n (%) (ALP <3×ULN, AST <2×ULN and TB ≤1 mg/dL, ITT Analysis Set, n=106): 73 (68.9) n (%)
Primary endpoint met at week 52, n (%) (ALP > 3 ULN, ITT Analysis Set, n=43): 9 (20.9) n (%)
safety and tolerability in patients (PBC patients): safe and well-tolerated
Odds Ratio of response (elafibranor vs placebo), Paris I criteria (Week 52, ITT Analysis Set): 2.852
Proportion of responders (Paris I criteria) (Week 52, ITT Analysis Set): 0.689
Risk difference (Paris I response, elafibranor vs placebo) (Week 52, ITT Analysis Set): 0.220
difference in Paris I response vs placebo (Week 52, ITT Analysis Set): 22.0%
participants with response based on ALP<3×ULN, AST<2×ULN and TB≤1 mg/dl (Paris I) (Week 52, ITT Analysis Set, 73/106): 68.9%
complete normalization of alkaline phosphatase at Week 52, difference vs placebo (all participants, Week 52): 15%
complete normalization of alkaline phosphatase at Week 52, odds ratio vs placebo (all participants, Week 52, 95% CI 2.8 to infinity): infinity
complete normalization of alkaline phosphatase at Week 52, % of participants (all participants, elafibranor 80 mg once daily, Week 52): 15%
complete normalization of alkaline phosphatase at Week 52, % of patients (baseline ALP >3 times the ULN): 4.7%
participants who met the primary endpoint (ALP<1.67×ULN, TB≤ULN, ALP decrease ≥15%) (baseline ALP >3 times the ULN (43 participants), Week 52): 20.9%
frequency of ALP normalization relative to other participants (FIG. 4) (baseline ALP more than 1.67×ULN and at most 2×ULN vs others, Week 52): at least 4 times
participants with a biochemical response at Week 52 (FIG. 3) (baseline ALP more than 1.67×ULN and at most 2.5×ULN): more than 80%
participants with a biochemical response at Week 52 (FIG. 3) (baseline ALP more than 2.5×ULN and at most 3×ULN): more than 50%
participants with a biochemical response at Week 52 (FIG. 3) (baseline ALP more than 3×ULN): less than 23%
biochemical response and ALP normalization rates by baseline ALP (FIGS. 3 to 5) (baseline ALP ≤3 ULN versus higher baseline ALP): higher biochemical response and ALP normalization rates
complete normalization of alkaline phosphatase at Week 52, % of patients (baseline ALP ≤3 times the ULN): 21.5%
participants who met the primary endpoint (ALP<1.67×ULN, TB≤ULN, ALP decrease ≥15%) (baseline ALP ≤3 times the ULN (65 participants), Week 52): 70.8%
reductions in alkaline phosphatase levels over time (baseline through Week 4, sustained significantly lower than placebo through Week 52): Rapid reductions
reduction in plasma ALP levels from baseline compared to placebo (treatment with elafibranor vs placebo): statistically significant reduction

— US20260240800A1, “ELAFIBRANOR FOR THE TREATMENT OF PRIMARY BILIARY CHOLANGITIS” (Genfit, priority 2023, published 2026)
